# Experimental data taken from ChEMBL document CHEMBL5325431, “Synthesis of thieno[3,2-e]pyrrolo[1,2-a]pyrimidine derivatives and their precursors containing 2-aminothiophenes fragments as anticancer agents for therapy of pulmonary metastatic melanoma” (Eur J Med Chem, 2023).
# pIC50: −log10 of the molar value. Calls of active or inactive are those of the source. The calls are words filed in the database; no cut-off is given here.
# Key:
# [1] = Toxicity in C57BL/6 mouse implanted with mouse B16-F10 cells assessed as heart damage at 4.6 to 42 mg/kg, ip by H and E staining based analysis; format: organism-based; conditions: in vivo, dose 4.6-42 mg/kg
# B16-F10 [2] = assay: Induction of apoptosis in mouse B16-F10 cells assessed as necrotic cells at 20 uM measured after 48 hrs by Annexin V-FITC/7-AAD staining based flow cytometric analysis relative to control; format: functional
# MEF = assay: Cytotoxicity against NF2-deficient mouse MEF cells assessed as reduction in cell viability at 0.2 to 55 uM incubated for 24 hrs by alamarblue staining based analysis; format: toxicity; conditions: dose 0.2-55 µM
# [3] = Toxicity in C57BL/6 mouse implanted with mouse B16-F10 cells assessed as spleen damage at 4.6 to 42 mg/kg, ip by H and E staining based analysis; format: organism-based; conditions: in vivo, dose 4.6-42 mg/kg
# B16-F10 [4] = assay: Cytotoxicity against mouse B16-F10 cells assessed as cell death by measuring increase in red fluorescence at 10 uM by calcein AM/PI staining based confocal laser scanning microscopy analysis; format: functional
# [5] = Toxicity in C57BL/6 mouse assessed as effect on AST level at 37 mg/kg, ip measured for 22 days; format: organism-based; conditions: in vivo, 528 h, time 22 day
# B16-F10 [6] = assay: Induction of apoptosis in mouse B16-F10 cells assessed as late apoptotic cells at 5 uM measured after 48 hrs by Annexin V-FITC/7-AAD staining based flow cytometric analysis relative to control; format: functional
# B16-F10 [7] = assay: Induction of apoptosis in mouse B16-F10 cells assessed as late apoptotic cells at 20 uM measured after 48 hrs by Annexin V-FITC/7-AAD staining based flow cytometric analysis relative to control; format: functional
# B16-F10 [8] = assay: Induction of apoptosis in mouse B16-F10 cells assessed as early apoptotic cells at 15 uM measured after 48 hrs by Annexin V-FITC/7-AAD staining based flow cytometric analysis relative to control; format: functional
# [9] = Cytotoxicity against NF2-deficient mouse MEF cells assessed as cell survival incubated for 24 hrs by alamarblue staining based analysis; format: toxicity
# [10] = Toxicity in C57BL/6 mouse assessed as effect on urea level at 37 mg/kg, ip measured for 22 days; format: organism-based; conditions: in vivo, 528 h, time 22 day
# B16-F10 [11] = assay: Induction of apoptosis in mouse B16-F10 cells assessed as necrotic cells at 5 uM measured after 48 hrs by Annexin V-FITC/7-AAD staining based flow cytometric analysis relative to control; format: functional
# [12] = Toxicity in C57BL/6 mouse implanted with mouse B16-F10 cells assessed as heart damage at 9 to 9.5 mg/kg, ip by H and E staining based analysis; format: organism-based; conditions: in vivo, dose 9-9.5 mg/kg
# B16-F10 [13] = assay: Induction of apoptosis in mouse B16-F10 cells assessed as viable cells at 20 uM measured after 48 hrs by Annexin V-FITC/7-AAD staining based flow cytometric analysis relative to control; format: functional; conditions: read-out: Activity
# [14] = Toxicity in C57BL/6 mouse implanted with mouse B16-F10 cells assessed as liver damage at 4.6 to 42 mg/kg, ip by H and E staining based analysis; format: organism-based; conditions: in vivo, dose 4.6-42 mg/kg
# B16-F10 [15] = assay: Antitumor activity against metastatic mouse B16-F10 cells implanted in C57BL/6 mouse assessed as number of lung metastases at 9 to 9.5 mg/kg, ip administered for 12 days by histological analysis (reference value: 150 +/- 7); format: functional; conditions: dose 9-9.5 mg/kg, time 12 day
# B16-F10 [16] = assay: Antitumor activity against metastatic mouse B16-F10 cells implanted in C57BL/6 mouse assessed as number of lung metastases at 4.6 to 42 mg/kg, ip administered every 3rd day for 22 days measured on day 23 by histological analysis (reference value: 223 +/- 12); format: functional; conditions: dose 4.6-42 mg/kg, time 23 day
# B16-F10 [17] = assay: Induction of apoptosis in mouse B16-F10 cells assessed as late apoptotic cells at 10 uM measured after 48 hrs by Annexin V-FITC/7-AAD staining based flow cytometric analysis relative to control; format: functional
# B16-F10 [18] = assay: Induction of apoptosis in mouse B16-F10 cells assessed as viable cells at 10 uM measured after 48 hrs by Annexin V-FITC/7-AAD staining based flow cytometric analysis relative to control; format: functional; conditions: read-out: Activity
# B16-F10 [19] = assay: Induction of apoptosis in mouse B16-F10 cells assessed as viable cells at 15 uM measured after 48 hrs by Annexin V-FITC/7-AAD staining based flow cytometric analysis relative to control; format: functional; conditions: read-out: Activity
# B16-F10 [20] = assay: Induction of apoptosis in mouse B16-F10 cells assessed as early apoptotic cells at 20 uM measured after 48 hrs by Annexin V-FITC/7-AAD staining based flow cytometric analysis relative to control; format: functional
# [21] = Toxicity in C57BL/6 mouse assessed as change in body temperature at 37 mg/kg, ip measured for 22 days; format: organism-based; conditions: in vivo, 528 h, time 22 day
# B16-F10 [22] = assay: Antitumor activity against metastatic mouse B16-F10 cells implanted in C57BL/6 mouse assessed as number of lung metastases at 9 to 9.5 mg/kg, ip administered for 19 days by histological analysis (reference value: 190 +/- 9); format: functional; conditions: dose 9-9.5 mg/kg, time 19 day
# 4T1 = assay: Cytotoxicity against mouse 4T1 cells assessed as cell survival incubated for 24 hrs by alamarblue staining based analysis; format: functional; conditions: 4T1, 24 h
# [23] = Toxicity in C57BL/6 mouse assessed as body weight gain at 37 mg/kg, ip measured for 22 days; format: organism-based; conditions: in vivo, 528 h, time 22 day
# B16-F10 [24] = assay: Induction of apoptosis in mouse B16-F10 cells assessed as viable cells at 5 uM measured after 48 hrs by Annexin V-FITC/7-AAD staining based flow cytometric analysis relative to control; format: functional; conditions: read-out: Activity
# B16-F10 [25] = assay: Cytotoxicity against mouse B16-F10 cells assessed as cell survival incubated for 24 hrs by alamarblue staining based analysis; format: functional; conditions: B16-F10, 24 h
# B16-F10 [26] = assay: Induction of apoptosis in mouse B16-F10 cells assessed as early apoptotic cells at 5 uM measured after 48 hrs by Annexin V-FITC/7-AAD staining based flow cytometric analysis relative to control; format: functional
# [27] = Toxicity in C57BL/6 mouse implanted with mouse B16-F10 cells assessed as kidney damage at 9 to 9.5 mg/kg, ip by H and E staining based analysis; format: organism-based; conditions: in vivo, dose 9-9.5 mg/kg
# B16-F10 [28] = assay: Antitumor activity against metastatic mouse B16-F10 cells implanted in C57BL/6 mouse assessed as number of lung metastases at 9 to 9.5 mg/kg, ip administered for 22 days by histological analysis (reference value: 223 +/- 12); format: functional; conditions: dose 9-9.5 mg/kg, time 22 day
# B16-F10 [29] = assay: Antitumor activity against metastatic mouse B16-F10 cells implanted in C57BL/6 mouse assessed as number of lung metastases at 9 to 9.5 mg/kg, ip administered for 15 days by histological analysis (reference value: 175 +/- 10); format: functional; conditions: dose 9-9.5 mg/kg, time 15 day
# [30] = Toxicity in C57BL/6 mouse assessed as effect on ALT level at 37 mg/kg, ip measured for 22 days; format: organism-based; conditions: in vivo, 528 h, time 22 day
# B16-F10 [31] = assay: Induction of apoptosis in mouse B16-F10 cells assessed as necrotic cells at 15 uM measured after 48 hrs by Annexin V-FITC/7-AAD staining based flow cytometric analysis relative to control; format: functional
SMILES,Activity [1],Activity (B16-F10 [2]) [%],Activity (MEF),Activity [3],Activity (B16-F10 [4]),Activity [5],Activity (B16-F10 [6]) [%],Activity (B16-F10 [7]) [%],Activity (B16-F10 [8]) [%],IC50 at 24 h [9] [µM],Activity [10],Activity (B16-F10 [11]) [%],Activity [12],viability at 20 µM (B16-F10 [13]) [%],Activity [14],Activity (B16-F10 [15]),Activity (B16-F10 [16]),Activity (B16-F10 [17]) [%],viability at 10 µM (B16-F10 [18]) [%],viability at 15 µM (B16-F10 [19]) [%],other results
COc1ccc(C(=O)/C=C2\C(=O)C(C#N)=C3NC(=O)c4c(sc5c4CCCCC5)N32)cc1,Non-Toxic,7.4,Non-Toxic,Non-Toxic,Active,Non-Toxic,30.8,92,0.8,> 100,Non-Toxic,3.2,Non-Toxic,0.2,Non-Toxic,143,55,88.6,0.3,0.4,Activity (B16-F10 [20]): 0.3%; Activity [21]: Non-Toxic; Activity (B16-F10 [22]): 87; pIC50 (4T1): 5.06; Activity [23]: Toxic; viability at 5 µM (B16-F10 [24]): 63.2%; pIC50 (B16-F10 [25]): 5.21; Activity (B16-F10 [26]): 2.8%; Activity [27]: Non-Toxic; Activity (B16-F10 [28]): 75; Activity (B16-F10 [29]): 120; Activity [30]: Non-Toxic; Activity (B16-F10 [31]): 7.2%
CCOC(=O)c1c(N2C(N)=C(C#N)C(=O)/C2=C\C(=O)c2ccc(C)cc2)sc2c1CCCCC2,Non-Toxic,2.3,Non-Toxic,Non-Toxic,Active,Non-Toxic,30.4,96.5,0.5,> 100,Non-Toxic,32.8,Non-Toxic,0.2,Non-Toxic,145,29,75.6,1.1,0.1,Activity (B16-F10 [20]): 1%; Activity [21]: Non-Toxic; Activity (B16-F10 [22]): 67; pIC50 (4T1): 5.19; Activity [23]: Toxic; viability at 5 µM (B16-F10 [24]): 35.4%; pIC50 (B16-F10 [25]): 5.32; Activity (B16-F10 [26]): 1.4%; Activity [27]: Non-Toxic; Activity (B16-F10 [28]): 40; Activity (B16-F10 [29]): 105; Activity [30]: Non-Toxic; Activity (B16-F10 [31]): 3.3%
CCOC(=O)c1c(NC(=C\C(=O)c2ccc(OC)cc2)/C([O-])=C(\C#N)C(N)=O)sc2c1CCCC2.[K+],Non-Toxic,3.8,Non-Toxic,Non-Toxic,Active,Non-Toxic,43.5,95.1,0.5,> 100,Non-Toxic,48.5,Non-Toxic,0.3,Non-Toxic,161,~10,85.3,0.5,0.3,Activity (B16-F10 [20]): 0.8%; Activity [21]: Non-Toxic; Activity (B16-F10 [22]): 54; pIC50 (4T1): 5.42; Activity [23]: Toxic; viability at 5 µM (B16-F10 [24]): 5.8%; pIC50 (B16-F10 [25]): 5.62; Activity (B16-F10 [26]): 2.2%; Activity [27]: Non-Toxic; Activity (B16-F10 [28]): 21; Activity (B16-F10 [29]): 94; Activity [30]: Non-Toxic; Activity (B16-F10 [31]): 4.9%
